Measurements reported in US9227971B2, “Pyrazolo[1,5-a]pyrimidine compounds as mTOR inhibitors” (Merck Sharp & Dohme Corp., priority 2010, dated 2016).
Read-outs that look alike come from different tables or passages of the source.

Assays:
[1] = system: phosphorylated 4E-BP1 Thr37/46 (p4E-BP1 Thr37/46), mTORC1 activity, PC3 cells; assay: mTOR target engagement assay, immunofluorescent cell-based, p4E-BP1 Thr37/46 readout (mTORC1 activity); settings: read-out: p4E-BP1 Thr37/46 IC50
Procedure, shortened: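 PTEN-mutant PC3 prostate cells were treated with serially diluted compound in 5% FBS F12 medium (0.25% DMSO) for ninety minutes at 37° C, glyoxal-fixed, then immunostained overnight at 4° C for p4E-BP1 Thr37/46 with an Alexa Fluor 488 secondary. IC50 came from four-parameter fits of fluorescence, DMSO-only wells defining 100%.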

[2] = system: phosphorylated AKT Ser473 (pAKT S473), mTORC2 activity, PC3 cells; assay: mTOR target engagement assay, immunofluorescent cell-based, pAKT S473 readout (mTORC2 activity)
Procedure, shortened: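 After blocking, cells were stained overnight at 4 °C with anti-pAKT S473 antibody, then a fluorescent secondary; inhibition was read as reduced fluorescence intensity.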

[3] = Homo sapiens, PC-3, Table 7-8, PC3 cells
[4] = Homo sapiens, PC-3, Table 7-9 (no column head printed; column order as in the neighbouring tables), PC3 cells

Q: How did the IC50 [1, 3] turn out when CS(=O)(=O)c1c([C@@H]2C[C@H]3CC[C@@H](C2)N3C(=O)c2nnc[nH]2)nc2c(-c3ccc(C4(O)COC4)nc3)cnn2c1N [Compound 7.48, ((1R,3s,5S)-3-(7-amino-3-(6-(3-hydroxyoxetan-3-yl)pyridin-3-yl)-6-(methylsulfonyl)pyrazolo [1,5-a]pyrimidin-5-yl)-8-azabicyclo[3.2.1]octan-8-yl)(4H-1,2,4-triazol-3-yl)methanone] was run?
A: 1000 to 10000 nM

Q: What about the IC50 [2, 3] of the same compound?
A: 1000 to 10000 nM

Q: CS(=O)(=O)c1c([C@@H]2C[C@H]3CC[C@@H](C2)N3C(=O)CO)nc2c(-c3ccc(C4(O)COC4)nc3)cnn2c1N [Compound 7.49, 1-((1R,3s,5S)-3-(7-amino-3-(6-(3-hydroxyoxetan-3-yl)pyridin-3-yl)-6-(methylsulfonyl)pyrazolo [1,5-a]pyrimidin-5-yl)-8-azabicyclo[3.2.1]octan-8-yl)-2-hydroxyethanone] was tested. Which IC50 [1, 3] did it give?
A: 1000 to 10000 nM

Q: What about the IC50 [2, 3] of the same compound?
A: 1000 to 10000 nM

Q: How did the IC50 [1, 3] turn out when CC(=O)c1c([C@@H]2C[C@H]3CC[C@@H](C2)N3C(=O)c2nnc[nH]2)nc2c(-c3ccc(C4(O)CCCC4)nc3)cnn2c1N [Compound 7.50, 1-(5-((1R,3s,5S)-8-(4H-1,2,4-triazole-3-carbonyl)-8-azabicyclo[3.2.1]octan-3-yl)-7-amino-3-(6-(1-hydroxycyclopentyl)pyridin-3-yl)pyrazolo[1,5-a]pyrimidin-6-yl)ethanone] was run?
A: 1 to 100 nM

Q: What about the IC50 [2, 3] of the same compound?
A: 1 to 100 nM

Q: Which IC50 [1, 3] does the source give for CC(O)c1ccc(-c2cnn3c(N)c(S(C)(=O)=O)c([C@@H]4C[C@H]5CC[C@@H](C4)N5C(=O)c4nnc[nH]4)nc23)cc1 (stereo partly drawn) [Compound 7.51, ((1R,3s,5S)-3-(7-amino-3-(4-(1-hydroxyethyl)phenyl)-6-(methylsulfonyl)pyrazolo [1,5-a]pyrimidin-5-yl)-8-azabicyclo[3.2.1]octan-8-yl)(4H-1,2,4-triazol-3-yl)methanone] here?
A: 1 to 100 nM

Q: What about the IC50 [2, 3] of the same compound?
A: 1 to 100 nM

Q: How did the IC50 [1, 4] turn out when CC(=O)c1c([C@@H]2C[C@H]3CC[C@@H](C2)N3C(=O)c2nnc[nH]2)nc2c(-c3ccc(C(O)CO)nc3)cnn2c1N (stereo partly drawn) [Compound 7.52, 1-(5-((1R,3s,5S)-8-(4H-1,2,4-triazole-3-carbonyl)-8-azabicyclo[3.2.1]octan-3-yl)-7-amino-3-(6-(1,2-dihydroxyethyl)pyridin-3-yl)pyrazolo[1,5-a]pyrimidin-6-yl)ethanone] was run?
A: 1000 to 10000 nM

Q: And the IC50 [2, 4]?
A: 1000 to 10000 nM

Q: Which results are given for CS(=O)(=O)c1c([C@H]2CC3CC[C@H](C2)N3C(=O)c2nnc[nH]2)nc2c(-c3cnc4c(c3)CCCC4O)cnn2c1N (stereo partly drawn) [Compound 7.53, ((1R,3s,5S)-3-(7-amino-3-(8-hydroxy-5,6,7,8-tetrahydroquinolin-3-yl)-6-(methylsulfonyl)pyrazolo [1,5-a]pyrimidin-5-yl)-8-azabicyclo[3.2.1]octan-8-yl)(4H-1,2,4-triazol-3-yl)methanone]?
A: IC50 ([1]; Homo sapiens, PC-3, PC3 cells): 100 to 1000 nM; IC50 ([2]; Homo sapiens, PC-3, PC3 cells): 100 to 1000 nM

Q: Nc1c(C2CC2)c([C@H]2CC3CC[C@H](C2)N3C(=O)c2nnc[nH]2)nc2c(-c3cnc4c(c3)CCCC4O)cnn12 (stereo partly drawn) [Compound 7.54, ((1R,3s,5S)-3-(7-amino-6-cyclopropyl-3-(8-hydroxy-5,6,7,8-tetrahydroquinolin-3-yl)pyrazolo[1,5-a]pyrimidin-5-yl)-8-azabicyclo[3.2.1]octan-8-yl)(4H-1,2,4-triazol-3-yl)methanone] was tested. Which IC50 ([1]; Homo sapiens, PC-3, PC3 cells) did it give?
A: 1 to 100 nM

Q: And the IC50 ([2]; Homo sapiens, PC-3, PC3 cells)?
A: 1 to 100 nM

Q: How did the IC50 ([1]; Homo sapiens, PC-3, PC3 cells) turn out when CC1(O)CCCc2cc(-c3cnn4c(N)c(C5CC5)c([C@H]5CC6CC[C@H](C5)N6C(=O)c5nnc[nH]5)nc34)cnc21 (stereo partly drawn) [Compound 7.55, ((1R,3s,5S)-3-(7-amino-6-cyclopropyl-3-(8-hydroxy-8-methyl-5,6,7,8-tetrahydroquinolin-3-yl)pyrazolo[1,5-a]pyrimidin-5-yl)-8-azabicyclo[3.2.1]octan-8-yl)(4H-1,2,4-triazol-3-yl)methanone] was run?
A: 100 to 1000 nM

Q: What about the IC50 ([2]; Homo sapiens, PC-3, PC3 cells) of the same compound?
A: 100 to 1000 nM

Q: Which results are given for [2H]C1(O)CCCc2cc(-c3cnn4c(N)c(C5CC5)c([C@H]5CC6CC[C@H](C5)N6C(=O)c5nnc[nH]5)nc34)cnc21 (stereo partly drawn) [Compound 7.56, DEUTERATED-(3- EXO)-3-[7-AMINO-6- CYCLOPROPYL-3- (5,6,7,8- TETRAHYDRO-8- HYDROXY-3- QUINOLINYL- (D))PYRAZOLO[1,5- a]PYRIMIDIN-5-YL]-8- (4H-1,2,4-TRIAZOL-3- YLCARBONYL)-8- AZABICYCLO[3.2.1] OCTANE]?
A: IC50 ([1]; Homo sapiens, PC-3, PC3 cells): 1 to 100 nM; IC50 ([2]; Homo sapiens, PC-3, PC3 cells): 1 to 100 nM

Q: How did the IC50 ([1]; Homo sapiens, PC-3, PC3 cells) turn out when [2H]C1(O)CCCc2cc(-c3cnn4c(N)c(C(C)=O)c([C@H]5CC6CC[C@H](C5)N6C(=O)c5nnc[nH]5)nc34)cnc21 (stereo partly drawn) [Compound 7.57, DEUTERATED-(3- EXO)-3-[6-ACETYL-7- AMINO-3-(5,6,7,8- TETRAHYDRO-8- HYDROXY-3- QUINOLINYL- (D))PYRAZOLO[1,5- a]PYRIMIDIN-5-YL]-8- (4H-1,2,4-TRIAZOL-3- YLCARBONYL)-8- AZABICYCLO[3.2.1] OCTANE] was run?
A: 1 to 100 nM

Q: And the IC50 ([2]; Homo sapiens, PC-3, PC3 cells)?
A: 100 to 1000 nM

Q: CC(=O)c1c([C@@H]2C[C@H]3CC[C@@H](C2)N3C(=O)c2nnc[nH]2)nc2c(-c3cnc4c(c3)CCCC4O)cnn2c1N (stereo partly drawn) [Compound 7.58, 1-(5-((1R,3s,5S)-8-(4H-1,2,4-triazole-3-carbonyl)-8-azabicyclo[3.2.1]octan-3-yl)-7-amino-3-(8-hydroxy-5,6,7,8-tetrahydroquinolin-3-yl)pyrazolo[1,5-a]pyrimidin-6-yl)ethanone] was tested. Which IC50 ([1]; Homo sapiens, PC-3, PC3 cells) did it give?
A: 1 to 100 nM

Q: What about the IC50 ([2]; PC3 cells) of the same compound?
A: 1 to 100 nM

Q: For CC(=O)c1c([C@@H]2C[C@H]3CC[C@@H](C2)N3C(=O)c2nnc[nH]2)nc2c(-c3cnc4c(c3)CCCC4O)cnn2c1N (stereo partly drawn) [Compound 7.59, 1-(5-((1R,3s,5S)-8-(4H-1,2,4-triazole-3-carbonyl)-8-azabicyclo[3.2.1]octan-3-yl)-7-amino-3-(8-hydroxy-5,6,7,8-tetrahydroquinolin-3-yl)pyrazolo[1,5-a]pyrimidin-6-yl)ethanone], which IC50 ([1]; PC3 cells) is on record?
A: 1 to 100 nM

Q: And the IC50 ([2]; PC3 cells)?
A: 100 to 1000 nM

Q: Which IC50 ([1]; Homo sapiens, PC-3, PC3 cells) does the source give for Nc1c(C2CC2)c([C@H]2CC3CC[C@H](C2)N3C(=O)c2nnc[nH]2)nc2c(-c3cnc4c(c3)CCC4O)cnn12 (stereo partly drawn) [Compound 7.61, ((1R,3s,5S)-3-(7-amino-6-cyclopropyl-3-(7-hydroxy-6,7-dihydro-5H-cyclopenta[b]pyridin-3-yl)pyrazolo[1,5-a]pyrimidin-5-yl)-8-azabicyclo[3.2.1]octan-8-yl)(4H-1,2,4-triazol-3-yl)methanone] here?
A: 1 to 100 nM

Q: What about the IC50 ([2]; Homo sapiens, PC-3, PC3 cells) of the same compound?
A: 1 to 100 nM

Q: Which IC50 ([1]; Homo sapiens, PC-3, PC3 cells) does the source give for CS(=O)(=O)c1c([C@H]2CC3CC[C@H](C2)N3C(=O)c2nnc[nH]2)nc2c(-c3cnc4c(c3)CCC4O)cnn2c1N (stereo partly drawn) [Compound 7.62, ((1R,3s,5S)-3-(7-amino-3-(7-hydroxy-6,7-dihydro-5H-cyclopenta[b]pyridin-3-yl)-6-(methylsulfonyl)pyrazolo [1,5-a]pyrimidin-5-yl)-8-azabicyclo[3.2.1]octan-8-yl)(4H-1,2,4-triazol-3-yl)methanone] here?
A: 1000 to 10000 nM

Q: And the IC50 ([2]; Homo sapiens, PC-3, PC3 cells)?
A: 1000 to 10000 nM

Q: What does the source list for CC(=O)c1c([C@H]2CC3CC[C@H](C2)N3C(=O)c2nnc[nH]2)nc2c(-c3cnc4c(c3)OCCC4O)cnn2c1N (stereo partly drawn) [Compound 7.63, 1-(5-((1R,3s,5S)-8-(4H-1,2,4-triazole-3-carbonyl)-8-azabicyclo[3.2.1]octan-3-yl)-7-amino-3-(4-hydroxy-3,4-dihydro-2H-pyrano[3,2-b]pyridin-7-yl)pyrazolo[1,5-a]pyrimidin-6-yl)ethanone]?
A: IC50 ([1]; Homo sapiens, PC-3, PC3 cells): 1 to 100 nM; IC50 ([2]; Homo sapiens, PC-3, PC3 cells): 100 to 1000 nM
